Measurements reported in publication PMC5218480 (PLoS ONE, 2017).

Test system: MV-4-11 cells
Assay: Gene expression microarray analysis (Affymetrix PrimeView) and GSEA
Assay type: cell-based, human
Set-up: RFU PODN (11730768_x_at) / Fold change /veh PODN (11730768_x_at) / RFU LINC00158 (11744669_a_at) / Fold change /veh LINC00158 (11744669_a_at) / RFU DUSP10 (11751237_a_at) / Fold change /veh DUSP10 (11751237_a_at) / RFU ID3 (11757404_x_at) / Fold change /veh ID3 (11757404_x_at) / RFU PLEKHG5 (11737974_s_at) / Fold change /veh PLEKHG5 (11737974_s_at) / RFU LRRC4B (11730491_at) / Fold change /veh LRRC4B (11730491_at) / RFU GIMAP4 (11747438_a_at) / Fold change /veh GIMAP4 (11747438_a_at) / RFU KRT8 (11758183_x_at) / Fold change /veh KRT8 (11758183_x_at) / RFU CNN1 (11734310_a_at) / Fold change /veh CNN1 (11734310_a_at) / RFU VPS37D (11726825_at) / Fold change /veh VPS37D (11726825_at) / RFU C10orf10 (11716522_x_at) / Fold change /veh C10orf10 (11716522_x_at) / RFU KIR2DL2 /// KIR2DL4 /// KIR2DL5A /// KIR2DL5B /// KIR2DS1 /// KIR2DS2 /// KIR2DS3 /// KIR2DS4 /// KIR3DL3 /// KIR3DL3 /// KIR3DS1 (11738374_at) / Fold change /veh KIR2DL2 /// KIR2DL4 /// KIR2DL5A /// KIR2DL5B /// KIR2DS1 /// KIR2DS2 /// KIR2DS3 /// KIR2DS4 /// KIR3DL3 /// KIR3DL3 /// KIR3DS1 (11738374_at) / RFU C1QL1 (11718748_at) / Fold change /veh C1QL1 (11718748_at) / RFU TMPRSS4 (11747572_a_at) / Fold change /veh TMPRSS4 (11747572_a_at) / RFU HAMP (11756126_x_at) / Fold change /veh HAMP (11756126_x_at) / RFU RNFT2 (11725882_a_at) / Fold change /veh RNFT2 (11725882_a_at) / RFU NR4A2 (11747474_a_at) / Fold change /veh NR4A2 (11747474_a_at) / RFU ABCC12 (11746883_a_at) / Fold change /veh ABCC12 (11746883_a_at) / RFU TMEM136 (11760407_x_at) / Fold change /veh TMEM136 (11760407_x_at) / RFU CLDN22 /// WWC2 (11732394_at) / Fold change /veh CLDN22 /// WWC2 (11732394_at) / RFU HLA-DPB1 (11760878_x_at) / Fold change /veh HLA-DPB1 (11760878_x_at) / RFU SPINT1 (11716480_a_at) / Fold change /veh SPINT1 (11716480_a_at) / RFU GAP43 (11754022_s_at) / Fold change /veh GAP43 (11754022_s_at) / RFU A4GNT (11735810_at) / Fold change /veh A4GNT (11735810_at) / RFU PRB3 (11715151_x_at) / Fold change /veh PRB3 (11715151_x_at) / RFU TUBB4B (11761932_at) / Fold change /veh TUBB4B (11761932_at) / RFU CAPN14 (11732068_a_at) / Fold change /veh CAPN14 (11732068_a_at) / RFU TMCC2 (11721928_a_at) / Fold change /veh TMCC2 (11721928_a_at) / RFU IRGQ (11745062_a_at) / Fold change /veh IRGQ (11745062_a_at) / RFU FAM174B (11720279_a_at) / Fold change /veh FAM174B (11720279_a_at) / RFU TMPRSS4 (11748680_a_at) / Fold change /veh TMPRSS4 (11748680_a_at) / RFU FAM212B (11763350_a_at) / Fold change /veh FAM212B (11763350_a_at) / RFU PLEKHG5 (11743358_a_at) / Fold change /veh PLEKHG5 (11743358_a_at) / RFU ZSCAN30 (11745921_a_at) / Fold change /veh ZSCAN30 (11745921_a_at) / RFU CMKLR1 (11741424_a_at) / Fold change /veh CMKLR1 (11741424_a_at) / RFU LOC101060620 /// MAPK8IP1 (11723275_at) / Fold change /veh LOC101060620 /// MAPK8IP1 (11723275_at) / RFU SPTSSB (11747773_x_at) / Fold change /veh SPTSSB (11747773_x_at) / RFU PRSS12 (11739890_at) / Fold change /veh PRSS12 (11739890_at) / RFU BIN1 (11741810_x_at) / Fold change /veh BIN1 (11741810_x_at) / RFU WNT11 (11732464_a_at) / Fold change /veh WNT11 (11732464_a_at) / RFU C10orf10 (11716521_a_at) / Fold change /veh C10orf10 (11716521_a_at) / RFU C5orf56 (11738089_at) / Fold change /veh C5orf56 (11738089_at) / RFU CYB561 (11721691_x_at) / Fold change /veh CYB561 (11721691_x_at) / RFU ANKRD19P (11752326_a_at) / Fold change /veh ANKRD19P (11752326_a_at) / RFU OR2T12 /// OR2T33 /// OR2T8 (11738714_s_at) / Fold change /veh OR2T12 /// OR2T33 /// OR2T8 (11738714_s_at) / RFU VCAN (11748164_a_at) / Fold change /veh VCAN (11748164_a_at) / RFU JSRP1 (11732532_at) / Fold change /veh JSRP1 (11732532_at) / RFU KRTAP10-11 (11738290_x_at) / Fold change /veh KRTAP10-11 (11738290_x_at) / RFU MYO3A (11730013_a_at) / Fold change /veh MYO3A (11730013_a_at) / RFU EBF3 (11725865_a_at) / Fold change /veh EBF3 (11725865_a_at) / RFU CAMK2N1 (11719241_x_at) / Fold change /veh CAMK2N1 (11719241_x_at) / RFU C5orf56 (11738088_a_at) / Fold change /veh C5orf56 (11738088_a_at) / RFU OLFML3 (11715873_a_at) / Fold change /veh OLFML3 (11715873_a_at) / RFU LOC100653217 /// NTM (11731650_a_at) / Fold change /veh LOC100653217 /// NTM (11731650_a_at) / RFU MAPK11 (11762145_a_at) / Fold change /veh MAPK11 (11762145_a_at) / RFU FIZ1 (11724087_x_at) / Fold change /veh FIZ1 (11724087_x_at) / RFU OASL (11726364_x_at) / Fold change /veh OASL (11726364_x_at) / RFU SOX15 (11748057_x_at) / Fold change /veh SOX15 (11748057_x_at) / RFU CD79A (11719716_a_at) / Fold change /veh CD79A (11719716_a_at) / RFU HIST1H1D (11736915_at) / Fold change /veh HIST1H1D (11736915_at) / RFU CASKIN2 (11723855_a_at) / Fold change /veh CASKIN2 (11723855_a_at) / RFU LOC730098 (11760151_x_at) / Fold change /veh LOC730098 (11760151_x_at) / RFU OR4N2 (11742367_at) / Fold change /veh OR4N2 (11742367_at) / RFU PRRT2 (11749266_a_at) / Fold change /veh PRRT2 (11749266_a_at) / RFU SNX32 (11753110_a_at) / Fold change /veh SNX32 (11753110_a_at) / RFU CDHR5 (11726645_a_at) / Fold change /veh CDHR5 (11726645_a_at) / RFU RCAN1 (11760418_a_at) / Fold change /veh RCAN1 (11760418_a_at) / RFU FAM167A (11723789_a_at) / Fold change /veh FAM167A (11723789_a_at) / RFU FAM26E (11764081_at) / Fold change /veh FAM26E (11764081_at) / RFU ISYNA1 (11749810_s_at) / Fold change /veh ISYNA1 (11749810_s_at) / RFU ACY1 (11761880_at) / Fold change /veh ACY1 (11761880_at) / RFU 11764098_at / Fold change /veh 11764098_at / RFU SAMD14 (11745864_x_at) / Fold change /veh SAMD14 (11745864_x_at) / RFU NPB (11741838_a_at) / Fold change /veh NPB (11741838_a_at) / RFU TMPRSS6 (11731388_a_at) / Fold change /veh TMPRSS6 (11731388_a_at) / RFU KRTAP10-2 (11738614_at) / Fold change /veh KRTAP10-2 (11738614_at) / RFU ARHGAP8 /// PRR5-ARHGAP8 (11727945_x_at) / Fold change /veh ARHGAP8 /// PRR5-ARHGAP8 (11727945_x_at) / RFU KRTAP5-7 /// NADSYN1 (11734609_at) / Fold change /veh KRTAP5-7 /// NADSYN1 (11734609_at) / RFU RASL12 (11751679_a_at) / Fold change /veh RASL12 (11751679_a_at) / RFU CDKN2B (11736163_a_at) / Fold change /veh CDKN2B (11736163_a_at) / RFU PRF1 (11729649_at) / Fold change /veh PRF1 (11729649_at) / RFU, ZNF638 /// ZNF638-IT1 / Fold change vs veh, ZNF638 /// ZNF638-IT1 / RFU, PANK3 / Fold change vs veh, PANK3 / RFU, SH3YL1 / Fold change vs veh, SH3YL1 / RFU, ZEB2 / Fold change vs veh, ZEB2 / RFU, NRIP1 / Fold change vs veh, NRIP1 / RFU, PTTG1IP / Fold change vs veh, PTTG1IP / RFU, CAPN2 / Fold change vs veh, CAPN2 / RFU, MED14 / Fold change vs veh, MED14 / RFU, SNORA58 / Fold change vs veh, SNORA58 / RFU, C1orf63 / Fold change vs veh, C1orf63 / RFU, LRRFIP1 / Fold change vs veh, LRRFIP1 / RFU, NDUFAF7 / Fold change vs veh, NDUFAF7 / RFU, SLC12A2 / Fold change vs veh, SLC12A2 / RFU, IBTK / Fold change vs veh, IBTK / RFU, ESF1 / Fold change vs veh, ESF1 / Fold change vs veh, TMEM50B / RFU, TAOK1 / Fold change vs veh, TAOK1 / RFU, ACBD3 / Fold change vs veh, ACBD3 / RFU, TMA16 / Fold change vs veh, TMA16 / RFU, RWDD3 / Fold change vs veh, RWDD3 / RFU, BCAT1 / Fold change vs veh, BCAT1 / RFU, EDEM3 / Fold change vs veh, EDEM3 / RFU, TMEM33 / Fold change vs veh, TMEM33 / RFU, WDR75 / Fold change vs veh, WDR75 / RFU, AHCTF1 / Fold change vs veh, AHCTF1 / RFU, TFRC / Fold change vs veh, TFRC / RFU, ZDHHC17 / Fold change vs veh, ZDHHC17 / RFU, NOM1 / Fold change vs veh, NOM1 / RFU, ARL8B / Fold change vs veh, ARL8B / RFU, ZBTB11 / Fold change vs veh, ZBTB11 / RFU, TAMM41 / Fold change vs veh, TAMM41 / RFU, KIAA1704 /// LOC100996395 / Fold change vs veh, KIAA1704 /// LOC100996395 / RFU, ING1 / Fold change vs veh, ING1 / RFU, TRMT61B / Fold change vs veh, TRMT61B / RFU, FUBP3 / Fold change vs veh, FUBP3 / RFU, TP53 / Fold change vs veh, TP53 / RFU, TNKS2 / Fold change vs veh, TNKS2 / RFU, ZFP14 / Fold change vs veh, ZFP14 / RFU, ACTR2 / Fold change vs veh, ACTR2 / RFU, PPP3R1 / Fold change vs veh, PPP3R1 / RFU, PIK3R1 / Fold change vs veh, PIK3R1 / RFU, HNRNPA1 / Fold change vs veh, HNRNPA1 / RFU, RNF170 / Fold change vs veh, RNF170 / RFU, ZNF28 / Fold change vs veh, ZNF28 / RFU, RNGTT / Fold change vs veh, RNGTT / RFU, OGT / Fold change vs veh, OGT / RFU, BRD1 / Fold change vs veh, BRD1 / RFU, MARS / Fold change vs veh, MARS / RFU, ZNF655 / Fold change vs veh, ZNF655 / RFU, FAHD1 / Fold change vs veh, FAHD1 / RFU, BDP1 / Fold change vs veh, BDP1 / RFU, LRRCC1 / Fold change vs veh, LRRCC1 / RFU, ARID1A / Fold change vs veh, ARID1A / RFU, ZNF146 / Fold change vs veh, ZNF146 / RFU, ZNF330 / Fold change vs veh, ZNF330 / RFU, GPN3 / Fold change vs veh, GPN3 / RFU, C9orf123 / Fold change vs veh, C9orf123 / RFU, N4BP2L2 / Fold change vs veh, N4BP2L2 / RFU, ARFIP1 / Fold change vs veh, ARFIP1 / RFU, FAM179B / Fold change vs veh, FAM179B / RFU, BCL10 / Fold change vs veh, BCL10 / RFU, UHRF1BP1L / Fold change vs veh, UHRF1BP1L / RFU, BET1 / Fold change vs veh, BET1 / RFU, CNOT2 / Fold change vs veh, CNOT2 / RFU, ZNF268 / Fold change vs veh, ZNF268 / Fold change vs veh, ZNF507 / RFU, DGCR2 / Fold change vs veh, DGCR2 / RFU, WDSUB1 / Fold change vs veh, WDSUB1 / Fold change vs veh, HSP90B1 /// MIR3652 / RFU, ADSS / Fold change vs veh, ADSS / RFU, GK / Fold change vs veh, GK / RFU, ZNF148 / Fold change vs veh, ZNF148 / RFU, TAF9 / Fold change vs veh, TAF9 / RFU, SLC1A5 / Fold change vs veh, SLC1A5 / RFU, SLMO2 / Fold change vs veh, SLMO2 / RFU, ABCC4 / Fold change vs veh, ABCC4 / RFU, LOC101060439 /// RAP1B / Fold change vs veh, LOC101060439 /// RAP1B / RFU, RFX7 / Fold change vs veh, RFX7 / RFU, GTPBP10 / Fold change vs veh, GTPBP10 / RFU, CNEP1R1 / Fold change vs veh, CNEP1R1 / RFU, BIVM-ERCC5 /// ERCC5 / Fold change vs veh, BIVM-ERCC5 /// ERCC5 / RFU, ILF3 / Fold change vs veh, ILF3 / RFU 11762660_at / Fold change /veh 11762660_at / RFU VCAN (11757783_s_at) / Fold change /veh VCAN (11757783_s_at) / RFU DDX43 (11728927_at) / Fold change /veh DDX43 (11728927_at) / RFU KRT8 (11758188_x_at) / Fold change /veh KRT8 (11758188_x_at) / RFU NKD1 (11759106_at) / Fold change /veh NKD1 (11759106_at) / RFU SRD5A1 (11742802_a_at) / Fold change /veh SRD5A1 (11742802_a_at) / RFU TPSAB1 /// TPSB2 (11721975_s_at) / Fold change /veh TPSAB1 /// TPSB2 (11721975_s_at) / RFU GSTM3 (11746129_a_at) / Fold change /veh GSTM3 (11746129_a_at) / RFU IL23R (11737362_x_at) / Fold change /veh IL23R (11737362_x_at) / RFU TMEM51 (11727254_a_at) / Fold change /veh TMEM51 (11727254_a_at) / RFU PIWIL2 (11732686_x_at) / Fold change /veh PIWIL2 (11732686_x_at) / RFU ORM1 (11744905_x_at) / Fold change /veh ORM1 (11744905_x_at) / RFU CCDC152 (11743942_at) / Fold change /veh CCDC152 (11743942_at) / RFU ECM1 (11717891_a_at) / Fold change /veh ECM1 (11717891_a_at) / RFU IL23R (11748794_a_at) / Fold change /veh IL23R (11748794_a_at) / RFU TNFAIP8L3 (11732012_x_at) / Fold change /veh TNFAIP8L3 (11732012_x_at) / RFU MBOAT4 (11741988_at) / Fold change /veh MBOAT4 (11741988_at) / RFU 11764193_at / Fold change /veh 11764193_at / RFU TMEM53 (11763286_at) / Fold change /veh TMEM53 (11763286_at) / RFU MAGEB2 (11727129_at) / Fold change /veh MAGEB2 (11727129_at) / RFU TMEM200A (11744735_a_at) / Fold change /veh TMEM200A (11744735_a_at) / RFU CCDC152 (11751479_a_at) / Fold change /veh CCDC152 (11751479_a_at) / RFU FAM211A (11726209_a_at) / Fold change /veh FAM211A (11726209_a_at) / RFU RGS16 (11746705_a_at) / Fold change /veh RGS16 (11746705_a_at) / RFU VCAN (11755009_s_at) / Fold change /veh VCAN (11755009_s_at) / RFU RHOB (11743442_s_at) / Fold change /veh RHOB (11743442_s_at) / RFU RGS16 (11720943_a_at) / Fold change /veh RGS16 (11720943_a_at) / RFU RGS16 (11720944_at) / Fold change /veh RGS16 (11720944_at) / RFU, VPS4B / Fold change vs veh, VPS4B / RFU, CREB1 / Fold change vs veh, CREB1 / RFU, DNAJC13 / Fold change vs veh, DNAJC13 / RFU, GNAQ / Fold change vs veh, GNAQ / RFU, CDK5R1 / Fold change vs veh, CDK5R1 / RFU, ZRANB3 / Fold change vs veh, ZRANB3 / RFU, CUL4A / Fold change vs veh, CUL4A / RFU, CCNY / Fold change vs veh, CCNY / RFU, UFL1 / Fold change vs veh, UFL1 / RFU, COG3 / Fold change vs veh, COG3 / RFU, DIAPH2 / Fold change vs veh, DIAPH2 / RFU, SKA2 / Fold change vs veh, SKA2 / RFU, AFF3 / Fold change vs veh, AFF3 / RFU, LMF1 / Fold change vs veh, LMF1 / RFU, IPO11 / Fold change vs veh, IPO11 / RFU, DFFB / Fold change vs veh, DFFB / RFU, FOXP1 / Fold change vs veh, FOXP1 / RFU, CARD8 / Fold change vs veh, CARD8 / RFU, STRN3 / Fold change vs veh, STRN3 / RFU, ADK / Fold change vs veh, ADK / RFU, RASSF2 / Fold change vs veh, RASSF2 / RFU, WIPF1 / Fold change vs veh, WIPF1 / RFU, LARP1B / Fold change vs veh, LARP1B / RFU, RASA1 / Fold change vs veh, RASA1 / RFU, RB1 / Fold change vs veh, RB1 / RFU, PPFIA1 / Fold change vs veh, PPFIA1 / RFU, MAT2A / Fold change vs veh, MAT2A / RFU, CCT5 / Fold change vs veh, CCT5 / RFU, WDR92 / Fold change vs veh, WDR92 / RFU, CUX1 / Fold change vs veh, CUX1 / RFU, TTC7A / Fold change vs veh, TTC7A / RFU, TMEM135 / Fold change vs veh, TMEM135 / RFU, DEPTOR / Fold change vs veh, DEPTOR / RFU, CPM / Fold change vs veh, CPM / RFU, DNAJB6 / Fold change vs veh, DNAJB6 / RFU, CACNA2D3 / Fold change vs veh, CACNA2D3 / RFU, DTX4 / Fold change vs veh, DTX4 / RFU, TFCP2 / Fold change vs veh, TFCP2 / RFU, GMCL1 /// GMCL1P1 / Fold change vs veh, GMCL1 /// GMCL1P1 / RFU, AEBP2 / Fold change vs veh, AEBP2 / RFU, SNHG1 /// SNORD22 /// SNORD25 /// SNORD26 /// SNORD27 /// SNORD28 /// SNORD29 /// SNORD31 / Fold change vs veh, SNHG1 /// SNORD22 /// SNORD25 /// SNORD26 /// SNORD27 /// SNORD28 /// SNORD29 /// SNORD31 / Fold change (Aza/veh), C12orf56 (ProbeSet 11735607_a_at) / Fold change (ACY-1035/veh), C12orf56 (ProbeSet 11735607_a_at) / Fold change (Aza/veh), FGFR1OP (ProbeSet 11751329_s_at) / Fold change (ACY-1035/veh), FGFR1OP (ProbeSet 11751329_s_at) / Fold change (Aza/veh), VPS36 (ProbeSet 11739960_a_at) / Fold change (ACY-1035/veh), VPS36 (ProbeSet 11739960_a_at) / RFU SYPL1 (11715823_x_at) / Fold change /veh SYPL1 (11715823_x_at) / RFU IGFBP7 (11715501_s_at) / Fold change /veh IGFBP7 (11715501_s_at) / RFU REEP3 (11722064_at) / Fold change /veh REEP3 (11722064_at) / RFU IGLL1 (11728026_x_at) / Fold change /veh IGLL1 (11728026_x_at): dose or concentration left out as unconfirmed
Conditions: MV-4-11 cells, 48 hours

Nc1ncn([C@@H]2O[C@H](CO)[C@@H](O)[C@H]2O)c(=O)n1 [azacitidine]
RFU SYPL1 (11715823_x_at): 860.69 RFU
